# Data: patent publication US9346794B1, “Substituted 4-pyridones and their use as inhibitors of neutrophil elastase activity” (Boehringer Ingelheim International GmbH, priority 2012, dated 2016)
# Molecular target: Human neutrophil elastase (Homo sapiens (Human), UniProt P08246)
# Experiment: Human Neutrophil Elastase Assay
# Type: biochemical
# Conditions: substrate MeOSuc-Ala-Ala-Pro-Val-AMC 250 μM, fluorescence, pH 7.5
# Protocol: Human Neutrophil Elastase Assay
# All other materials were of the highest grade commercially available.
# The following buffers were used: Compound buffer: 100 mM Tris, 500 mM NaCl, adjusted to pH 7.5; Assay buffer: 100 mM Tris, 500 mM NaCl, adjusted to pH 7.5, containing 0.01% BSA.
# Assay conditions: Test compounds were prediluted in DMSO and subsequently in compound buffer (5% DMSO final). […] After inactivation of the enzyme, fluorescence intensities were measured at 380 nm excitation and 460 nm emission wavelengths.
# Each plate contains wells with a high value control (DMSO+enzyme+substrate) and wells with a low value control (DMSO+inactivated enzyme+substrate). IC50 values were estimated using a sigmoidal concentration response curve with variable slope. Means of low values were taken as 0%, means of high values as 100%. IC50 values of selected compound in the Neutrophil Elastase assay: […]
# Sequence of Human neutrophil elastase (P08246 30-247): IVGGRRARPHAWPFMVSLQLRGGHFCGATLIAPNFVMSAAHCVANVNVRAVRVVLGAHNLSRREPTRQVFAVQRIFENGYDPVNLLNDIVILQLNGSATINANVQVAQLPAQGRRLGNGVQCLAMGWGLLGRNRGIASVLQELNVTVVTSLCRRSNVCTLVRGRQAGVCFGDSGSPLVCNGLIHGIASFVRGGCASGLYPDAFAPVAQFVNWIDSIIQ
row,Compound,IC50 [nM]
1,"CN=S(=O)(c1ccc(CNC(=O)c2cn(C(C)C)c(C)c(-c3cccc(C(F)(F)F)c3)c2=O)cc1)N(C)C (centres unmarked) [Example 60, 5-(3-Trifluoromethyl-phenyl)-1-isopropyl-6-methyl-4-oxo-1,4-dihydro-pyridine-3-carboxylic acid 4-(N,N,N′-trimethylsulfamimidoyl)-benzylamide]",22
2,"Cc1c(-c2cccc(C(F)(F)F)c2)c(=O)c(C(=O)NCc2ccc(S(C)(=O)=NC#N)cc2)cn1-c1ccnn1C (single isomer, unassigned) [Example 47]",1.2
3,Cc1cc(S(C)(=O)=NC#N)ccc1CNC(=O)c1cn(C(C)C)c(C)c(-c2cccc(C(F)(F)F)c2)c1=O (centres unmarked) [Example 15],2.2
4,CCS(=O)(=NC#N)c1ccc(CNC(=O)c2cn(C(C)C)c(C)c(-c3cccc(C(F)F)c3)c2=O)cc1 (centres unmarked) [Example 31],< 1
5,CCS(=O)(=NC#N)c1ccc(CNC(=O)c2cn(-c3ccnn3C)c(C)c(-c3cccc(C(F)(F)F)c3)c2=O)cc1 (centres unmarked) [Example 18],1.5
6,"Cc1c(-c2cccc(C(F)F)c2)c(=O)c(C(=O)NCc2ccc(S(C)(=O)=NC#N)cc2)cn1C(C)C (centres unmarked) [Example 1, 5-(3-Difluoromethyl-phenyl)-1-isopropyl-6-methyl-4-oxo-1,4-dihydro-pyridine-3-carboxylic acid 4-(N-cyano-S-methylsulfonimidoyl)-benzylamide]",1.3
7,"CCn1cc(C(=O)NCc2ccc(S(=O)(=NC#N)C(C)C)cc2)c(=O)c(-c2cccc(C(F)F)c2)c1C (single isomer, unassigned) [Example 30B]",< 1
8,"CCn1cc(C(=O)NCc2ccc(S(C)(=O)=NC#N)cc2)c(=O)c(-c2cccc(C(F)(F)F)c2)c1C (single isomer, unassigned) [Example 4A, 1-Ethyl-6-methyl-4-oxo-5-(3-trifluoromethyl-phenyl)-1,4-dihydro-pyridine-3-carboxylic acid 4-(N-cyano-S-methylsulfonimidoyl)-benzylamide]",4.1
9,Cc1c(-c2cccc(C(F)(F)F)c2)c(=O)c(C(=O)NCc2ccc(S(C)(=O)=NC#N)cc2)cn1-c1nccs1 (centres unmarked) [Example 56],3.1
10,"Cc1c(-c2cccc(C(F)F)c2)c(=O)c(C(=O)NCc2ccc(S(C)(=O)=NC#N)cc2)cn1C(C)C (centres unmarked) [Example 1B, 5-(3-Difluoromethyl-phenyl)-1-isopropyl-6-methyl-4-oxo-1,4-dihydro-pyridine-3-carboxylic acid 4-(N-cyano-S-methylsulfonimidoyl)-benzylamide]",1.3
11,"CCn1cc(C(=O)NCc2ccc(S(C)(=O)=NC#N)cc2)c(=O)c(-c2cccc(C(F)F)c2)c1C (centres unmarked) [Example 5, 5-(3-Difluoromethyl-phenyl)-1-ethyl-6-methyl-4-oxo-1,4-dihydro-pyridine-3-carboxylic acid 4-(N-cyano-S-methylsulfonimidoyl)-benzylamide]",2.5
12,"CCS(=O)(=NC#N)c1ccc(CNC(=O)c2cn(C3CC3)c(C)c(-c3cccc(C(F)(F)F)c3)c2=O)cc1 (single isomer, unassigned) [Example 21A]",5.2
13,"Cc1c(-c2ccnc(C(F)(F)F)c2)c(=O)c(C(=O)NCc2ccc(S(C)(=O)=NC#N)cc2)cn1-c1ccccn1 (single isomer, unassigned) [Example 44]",14.9
14,Cc1ccc(-n2cc(C(=O)NCc3ccc(S(C)(=O)=NC#N)cc3)c(=O)c(-c3cccc(C(F)(F)F)c3)c2C)cn1 (centres unmarked) [Example 58],4.7
15,CCn1cc(C(=O)NCc2ccc(S(=O)(=NC#N)C(C)C)cc2)c(=O)c(-c2cccc(C(F)(F)F)c2)c1C (centres unmarked) [Example 11],< 1
16,Cc1c(-c2cccc(C(F)(F)F)c2)c(=O)c(C(=O)NCc2ccc(S(C)(=O)=NS(C)(=O)=O)cc2)cn1C(C)C (centres unmarked) [Example 17],7.3
17,"CN=S(=O)(c1ccc(CNC(=O)c2cn(C(C)C)c(C)c(-c3cccc(C(F)F)c3)c2=O)cc1)N(C)C (centres unmarked) [Example 61, 5-(3-Difluoromethyl-phenyl)-1-isopropyl-6-methyl-4-oxo-1,4-dihydro-pyridine-3-carboxylic acid 4-(N,N,N′-trimethylsulfamimidoyl)-benzylamide]",10.2
18,"Cc1c(-c2cccc(C(F)F)c2)c(=O)c(C(=O)NCc2ccc(S(C)(=O)=NC#N)cc2)cn1C(C)C (single isomer, unassigned) [Example 1A, 5-(3-Difluoromethyl-phenyl)-1-isopropyl-6-methyl-4-oxo-1,4-dihydro-pyridine-3-carboxylic acid 4-(N-cyano-S-methylsulfonimidoyl)-benzylamide]",3.1
19,"Cc1c(-c2ccc(F)c(C(F)(F)F)c2)c(=O)c(C(=O)NCc2ccc(S(C)(=O)=NC#N)cc2)cn1C(C)C (single isomer, unassigned) [Example 41]",1.8
20,"Cc1c(-c2cccc(C(F)F)c2)c(=O)c(C(=O)NCc2ccc(S(C)(=O)=NC#N)cc2)cn1-c1ccccc1 (single isomer, unassigned) [Example 38]",3.7
21,"Cc1c(-c2cccc(C(F)(F)F)c2)c(=O)c(C(=O)NCc2ccc(S(=O)(=NC#N)C(C)C)cc2)cn1C1CC1 (single isomer, unassigned) [Example 22B]",1.2
22,"CCn1cc(C(=O)NCc2ccc(S(=O)(=NC#N)C(C)C)cc2)c(=O)c(-c2cccc(C(F)F)c2)c1C (single isomer, unassigned) [Example 30A]",1.8
23,"CCn1cc(C(=O)NCc2ccc(S(C)(=O)=NC#N)cc2)c(=O)c(-c2cccc(C(F)(F)F)c2)c1C (racemic) [Example 4, 1-Ethyl-6-methyl-4-oxo-5-(3-trifluoromethyl-phenyl)-1,4-dihydro-pyridine-3-carboxylic acid 4-(N-cyano-S-methylsulfonimidoyl)-benzylamide]",3
24,"CCn1cc(C(=O)NCc2ccc(S(=O)(CC)=NC#N)cc2)c(=O)c(-c2cccc(C(F)(F)F)c2)c1C (single isomer, unassigned) [Example 10A]",2.7
25,"Cc1c(-c2ccnc(C(F)(F)F)c2)c(=O)c(C(=O)NCc2ccc(S(C)(=O)=NC#N)cc2)cn1C(C)C (racemic) [Example 3, 1-Isopropyl-2-methyl-4-oxo-2′-trifluoromethyl-1,4-dihydro-[3,4′]-bipyridinyl-5-carboxylic acid 4-(N-cyano-S-methylsulfonimidoyl)-benzylamide]",4.7
26,"Cc1c(-c2cccc(C(F)(F)F)c2)c(=O)c(C(=O)NCc2ccc(S(C)(=O)=NC#N)cc2)cn1-c1cncnc1 (single isomer, unassigned) [Example 28]",3.3
27,CCn1cc(C(=O)NCc2ccc(S(=O)(=NC#N)C(C)C)cc2)c(=O)c(-c2cccc(C(F)F)c2)c1C (centres unmarked) [Example 30],< 1
28,"CCn1cc(C(=O)NCc2ccc(S(C)(=O)=NC#N)cc2)c(=O)c(-c2cccc(C(F)(F)F)c2)c1C (single isomer, unassigned) [Example 4B, 1-Ethyl-6-methyl-4-oxo-5-(3-trifluoromethyl-phenyl)-1,4-dihydro-pyridine-3-carboxylic acid 4-(N-cyano-S-methylsulfonimidoyl)-benzylamide]",1.6
29,CCS(=O)(=NC#N)c1ccc(CNC(=O)c2cn(-c3ccnn3C)c(C)c(-c3cccc(C(F)F)c3)c2=O)cc1 (centres unmarked) [Example 36],1
